Molecular target: pyruvate kinase isozyme type M2 (PKM2) (Homo sapiens, UniProt P14618)
Test: SPR with immobilized recombinant human PKM2
Format: binding

pyruvate kinase isozyme type M2 (PKM2), sequence (P14618 2-531): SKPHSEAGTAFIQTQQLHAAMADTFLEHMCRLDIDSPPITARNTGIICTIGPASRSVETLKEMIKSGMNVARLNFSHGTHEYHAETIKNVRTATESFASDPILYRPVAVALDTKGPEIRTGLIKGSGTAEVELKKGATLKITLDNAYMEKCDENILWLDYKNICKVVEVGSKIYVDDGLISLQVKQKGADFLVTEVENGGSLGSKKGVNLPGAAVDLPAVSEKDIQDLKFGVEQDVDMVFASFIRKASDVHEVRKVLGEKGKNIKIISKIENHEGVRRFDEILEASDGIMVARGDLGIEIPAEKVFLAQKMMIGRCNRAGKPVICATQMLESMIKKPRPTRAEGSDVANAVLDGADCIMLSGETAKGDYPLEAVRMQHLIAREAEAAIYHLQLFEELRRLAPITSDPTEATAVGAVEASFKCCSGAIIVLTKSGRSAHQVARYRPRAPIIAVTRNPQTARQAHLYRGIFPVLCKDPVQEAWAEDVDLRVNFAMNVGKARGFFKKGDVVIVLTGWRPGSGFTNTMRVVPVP

## C1=Cc2ccccc2Nc2ccccc21 [ISB, Iminostilbene]
  Kd: 18.6 µM

Source: paper PMC8020153 (Journal of Advanced Research, 2020)
